Source: patent publication US12209081B2 (Katholieke Universiteit Leuven, priority 2020, dated 2025)
pIC50: −log10 of the molar value.

Molecular target: mouse TRPM3α2 (mTRPM3) ion channel (Mus musculus (Mouse), UniProt J9SQF3)
Assay: TRPM3 ion channel driven Ca2+ uptake, Fluo-4 AM assay, mTRPM3alpha2 overexpressing flip-in HEK293 cells stimulated with pregnenolone sulfate
Format: cell-based
Details: PS 50 μM, cpds 200-299
In short: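 Flip-in HEK293 cells loaded with Fluo-4 AM were added to plates holding compound plus 50 μM pregnenolone sulfate in Ca2+-containing Krebs buffer. Fluorescence (ex 485/em 535 nm) read directly after cell addition; % inhibition relative to PS-stimulated vehicle and positive-control inhibitor.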

Chain of mouse TRPM3α2 (mTRPM3) ion channel (J9SQF3 other isoform, or with tags, fused parts or gaps): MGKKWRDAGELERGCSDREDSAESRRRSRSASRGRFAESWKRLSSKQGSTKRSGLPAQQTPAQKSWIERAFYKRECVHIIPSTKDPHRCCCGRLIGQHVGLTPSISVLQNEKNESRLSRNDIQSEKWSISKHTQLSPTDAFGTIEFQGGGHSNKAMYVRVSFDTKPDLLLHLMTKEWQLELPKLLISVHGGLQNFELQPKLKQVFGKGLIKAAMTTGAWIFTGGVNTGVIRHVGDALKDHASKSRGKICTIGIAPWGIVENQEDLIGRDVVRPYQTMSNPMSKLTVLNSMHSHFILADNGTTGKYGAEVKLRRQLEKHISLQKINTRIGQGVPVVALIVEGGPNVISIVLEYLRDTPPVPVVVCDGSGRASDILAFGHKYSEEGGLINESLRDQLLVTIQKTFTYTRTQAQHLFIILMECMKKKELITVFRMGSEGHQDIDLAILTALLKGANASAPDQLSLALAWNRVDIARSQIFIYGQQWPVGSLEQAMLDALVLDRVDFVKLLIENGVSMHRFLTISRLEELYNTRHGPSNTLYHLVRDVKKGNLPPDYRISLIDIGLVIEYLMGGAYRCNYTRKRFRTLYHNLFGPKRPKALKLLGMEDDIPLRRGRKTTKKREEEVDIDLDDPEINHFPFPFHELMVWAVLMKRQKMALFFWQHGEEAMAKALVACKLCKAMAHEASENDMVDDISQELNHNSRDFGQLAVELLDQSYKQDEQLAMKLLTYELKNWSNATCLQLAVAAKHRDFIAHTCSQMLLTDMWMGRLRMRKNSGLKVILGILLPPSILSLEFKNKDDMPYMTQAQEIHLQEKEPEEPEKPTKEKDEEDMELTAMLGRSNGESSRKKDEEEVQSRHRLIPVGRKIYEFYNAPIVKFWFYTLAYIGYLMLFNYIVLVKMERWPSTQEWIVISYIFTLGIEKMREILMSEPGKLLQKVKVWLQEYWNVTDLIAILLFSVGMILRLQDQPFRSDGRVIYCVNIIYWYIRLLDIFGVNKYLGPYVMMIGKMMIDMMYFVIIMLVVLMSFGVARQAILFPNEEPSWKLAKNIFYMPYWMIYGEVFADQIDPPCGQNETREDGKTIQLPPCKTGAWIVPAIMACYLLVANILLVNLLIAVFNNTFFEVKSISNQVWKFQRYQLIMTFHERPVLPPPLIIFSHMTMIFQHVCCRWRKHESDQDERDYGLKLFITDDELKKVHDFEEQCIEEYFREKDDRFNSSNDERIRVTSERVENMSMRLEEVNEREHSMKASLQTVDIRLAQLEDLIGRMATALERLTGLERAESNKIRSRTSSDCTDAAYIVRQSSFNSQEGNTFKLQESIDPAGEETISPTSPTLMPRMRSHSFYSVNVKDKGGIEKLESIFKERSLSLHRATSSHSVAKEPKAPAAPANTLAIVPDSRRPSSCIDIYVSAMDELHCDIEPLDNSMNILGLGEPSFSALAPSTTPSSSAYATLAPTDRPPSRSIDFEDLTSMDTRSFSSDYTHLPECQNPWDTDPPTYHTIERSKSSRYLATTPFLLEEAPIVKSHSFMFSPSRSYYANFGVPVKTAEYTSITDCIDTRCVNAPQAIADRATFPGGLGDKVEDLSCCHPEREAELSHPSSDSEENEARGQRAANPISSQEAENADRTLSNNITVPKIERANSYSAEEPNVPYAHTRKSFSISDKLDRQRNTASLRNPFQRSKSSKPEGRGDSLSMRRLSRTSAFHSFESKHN

Row | SMILES | IC50 [µM]
1 | Cc1ncsc1COc1ccc2oc(C)c(C(=O)N[C@@H](C(N)=O)C(C)C)c2c1 [compound 273, (R)-N-(1-amino-3-methyl-1-oxobutan-2-yl)-2-methyl-5-((4-methylthiazol-5-yl)methoxy)benzofuran-3-carboxamide] | < 1
2 | Cc1ncsc1COc1ccc2oc(C)c(C(=O)NC(CO)C(=O)O)c2c1 (single isomer, unassigned) [cpd 270-En 1] | > 20
3 | Cc1nc(COc2ccc3oc(C)c(C(=O)N[C@@H](CO)C(N)=O)c3c2)cs1 [compound 285, (S)-N-(1-amino-3-hydroxy-1-oxopropan-2-yl)-2-methyl-5-((2-methylthiazol-4-yl)methoxy)benzofuran-3-carboxamide] | < 1
4 | Cc1oc2ccc(OCc3c[nH]nc3C(F)(F)F)cc2c1C(=O)N[C@@H](CO)C(N)=O [compound 286, (S)-N-(1-amino-3-hydroxy-1-oxopropan-2-yl)-2-methyl-5-((3-(trifluoromethyl)-1H-pyrazol-4-yl)methoxy)benzofuran-3-carboxamide] | < 1

Same assay, conditions: PS 50 μM, cpds 300-399

Row | SMILES | IC50 [µM]
5 | Cc1oc2cc(F)c(OCc3cccnc3O)cc2c1C(=O)NC1(CO)CCOCC1 [compound 363, 6-fluoro-N-(4-(hydroxymethyl)tetrahydro-2H-pyran-4-yl)-2-methyl-5-((2-oxo-1,2-dihydropyridin-3-yl)methoxy)benzofuran-3-carboxamide] | < 1
6 | Cc1ncsc1COc1cc2c(C(=O)NC3(CO)COC3)c(C)oc2cc1F [compound 362, 6-fluoro-N-(3-(hydroxymethyl)oxetan-3-yl)-2-methyl-5-((4-methylthiazol-5-yl)methoxy)benzofuran-3-carboxamide] | < 1
7 | Cc1ncsc1COc1ccc2oc(C)c(C(=O)NCC3(F)CCOCC3)c2c1 [compound 394, N-((4-fluorotetrahydro-2H-pyran-4-yl)methyl)-2-methyl-5-((4-methylthiazol-5-yl)methoxy)benzofuran-3-carboxamide] | < 1
8 | Cc1ncsc1COc1cc(F)c2oc(C)c(C(=O)NC3(CO)COC3)c2c1 [compound 367, 7-fluoro-N-(3-(hydroxymethyl)oxetan-3-yl)-2-methyl-5-((4-methylthiazol-5-yl)methoxy)benzofuran-3-carboxamide] | < 1
9 | Cc1ccc(COc2ccc3oc(C)c(C(=O)N[C@H](C(N)=O)[C@@H](C)O)c3c2)cn1 [compound 380, N-((2S,3R)-1-amino-3-hydroxy-1-oxobutan-2-yl)-2-methyl-5-((6-methylpyridin-3-yl)methoxy)benzofuran-3-carboxamide] | < 1

Same assay, conditions: PS (50 μM) stimulated, cpd 001-199

Row | SMILES | pIC50
10 | Cc1ncsc1COc1ccc2oc(C)c(C(=O)Nc3ccn(C)n3)c2c1 [compound 161, 2-methyl-N-(1-methyl-1H-pyrazol-3-yl)-5-((4-methylthiazol-5-yl)methoxy)benzofuran-3-carboxamide] | > 6.00
11 | Cc1csc(COc2ccc3oc(C)c(C(=O)NC4CCNC4=O)c3c2)n1 (stereo not shown) [compound 043, 2-methyl-5-((4-methylthiazol-2-yl)methoxy)-N-(2-oxopyrrolidin-3-yl)benzofuran-3-carboxamide] | > 6.00
12 | Cc1ncsc1COc1ccc2oc(C)c(C(=O)NC3CCNCC3(F)F)c2c1 (stereo not shown) [compound 056, N-(3,3-difluoropiperidin-4-yl)-2-methyl-5-((4-methylthiazol-5-yl)methoxy)benzofuran-3-carboxamide] | > 6.00
13 | Cc1ncsc1COc1cc2c(C(=O)NC3(CO)CCOCC3)c(C)oc2cc1C#N [compound 194, 6-cyano-N-(4-(hydroxymethyl)tetrahydro-2H-pyran-4-yl)-2-methyl-5-((4-methylthiazol-5-yl) -methoxy)benzofuran-3-carboxamide] | < 4.70
14 | Cc1oc2ccc(OCc3cccnc3C(F)(F)F)cc2c1C(=O)NC1(CCO)COC1 [compound 129, N-(3-(2-hydroxyethyl)oxetan-3-yl)-2-methyl-5-((2-(trifluoromethyl)pyridin-3-yl)methoxy) -benzofuran-3-carboxamide] | > 6.00
15 | Cc1oc2c(F)cc(OCc3cccnc3C(F)(F)F)cc2c1C(=O)NC1CCNCC1(F)F (single isomer, unassigned) [cpd 176-En 2, N-(3,3-difluoropiperidin-4-yl)-7-fluoro-2-methyl-5-((2-(trifluoro-methyl)pyridin-3-yl)methoxy)benzofuran-3-carboxamide] | > 6.00

Same assay, conditions: PS (50 μM) stimulated, cpds. 400-499

Row | SMILES | pIC50
16 | Cc1oc2ccc(OCc3cccnc3C(F)(F)F)cc2c1C(=O)NC(C)(CO)CO [compound 424, N-(1,3-dihydroxy-2-methylpropan-2-yl)-2-methyl-5-((2-(trifluoromethyl)pyridin-3-yl)methoxy)benzofuran-3-carboxamide] | > 6.00
17 | Cc1oc2ccc(OCc3cccnc3O)cc2c1C(=O)N[C@H](C)CO [compound 495, (R)-N-(1-hydroxypropan-2-yl)-5-((2-hydroxypyridin-3-yl)methoxy)-2-methylbenzofuran-3-carboxamide] | > 6.00
18 | Cc1oc2ccc(OCc3cccnn3)cc2c1C(=O)NC(C)(CO)CO [compound 427, N-(1,3-dihydroxy-2-methylpropan-2-yl)-2-methyl-5-(pyridazin-3-ylmethoxy)benzofuran-3-carboxamide] | > 6.00
19 | Cc1ncsc1COc1ccc2oc(C)c(C(=O)NC(C)(CO)CO)c2c1 [compound 426, N-(1,3-dihydroxy-2-methylpropan-2-yl)-2-methyl-5-((4-methylthiazol-5-yl)methoxy)benzofuran-3-carboxamide] | > 6.00
20 | COc1ncccc1COc1ccc2oc(C)c(C(=O)NC3(C(N)=O)CCC3)c2c1 [compound 474, N-(1-carbamoylcyclobutyl)-5-((2-methoxypyridin-3-yl)methoxy)-2-methylbenzofuran-3-carboxamide] | > 6.00
21 | Cc1oc2ccc(OCc3cccnc3O)cc2c1C(=O)NC(C)(CO)CO [compound 430, N-(1,3-dihydroxy-2-methylpropan-2-yl)-5-((2-hydroxypyridin-3-yl)methoxy)-2-methylbenzofuran-3-carboxamide] | > 6.00
22 | Cc1ncc(COc2ccc3oc(C)c(C(=O)NC4(C(N)=O)CC4)c3c2)s1 [compound 476, N-(1-carbamoylcyclopropyl)-2-methyl-5-((2-methylthiazol-5-yl)methoxy)benzofuran-3-carboxamide] | > 6.00

Same assay, conditions: PS (50 μM) stimulated, cpds. 500-599

Row | SMILES | pIC50
23 | Cc1ncsc1COc1ccc2oc(C)c(C(=O)NC3(C(=O)N(C)C)COC3)c2c1 [compound 509, N-(3-(dimethylcarbamoyl)oxetan-3-yl)-2-methyl-5-((4-methylthiazol-5-yl)methoxy)benzofuran-3-carboxamide] | > 6.00
24 | Cc1oc2ccc(OCc3cccnn3)cc2c1C(=O)NC1CCNCC1(F)F (single isomer, unassigned) [cpd 557-En 1] | > 6.00
25 | Cc1ncsc1COc1ccc2oc(C)c(C(=O)NCC(C)(C)O)c2c1 [compound 506, N-(2-hydroxy-2-methylpropyl)-2-methyl-5-((4-methylthiazol-5-yl)methoxy)benzofuran-3-carboxamide] | > 6.00

Same assay, conditions: PS (50 μM) stimulated, cpds. 608-666

Row | SMILES | pIC50
26 | Cc1ncsc1COc1ccc2oc(C)c(C(=O)NCC(C)(C)CO)c2c1 [compound 602, N-(3-hydroxy-2,2-dimethylpropyl)-2-methyl-5-((4-methylthiazol-5-yl)methoxy)benzofuran-3-carboxamide] | > 6.00
27 | Cc1oc2ccc(OCc3nccn3C)cc2c1C(=O)NC1CNCCC1(F)F (single isomer, unassigned) [cpd 635-En 2] | 4.70 to 6.00
28 | Cc1oc2ccc(OCc3cccnc3)cc2c1C(=O)NC(CO)C(N)=O (stereo not shown) [compound 662, N-(1-amino-3-hydroxy-1-oxopropan-2-yl)-2-methyl-5-(pyridin-3-ylmethoxy)benzofuran-3-carboxamide] | > 6.00
29 | Cc1ncsc1COc1ccc2oc(C)c(C(=O)NC3(C(N)=O)CCOCC3)c2c1 [compound 650, N-(4-carbamoyltetrahydro-2H-pyran-4-yl)-2-methyl-5-((4-methylthiazol-5-yl)methoxy)benzofuran-3-carboxamide] | > 6.00
30 | Cc1oc2ccc(OCc3cccnc3O)cc2c1C(=O)NC1CNCCC1(F)F (single isomer, unassigned) [cpd 637-En 1] | > 6.00

Same assay, conditions: PS (50 μM) stimulated, cpds. 667-751

Row | SMILES | pIC50
31 | Cc1ncoc1COc1ccc2oc(C)c(C(=O)N[C@@H](CO)C(N)=O)c2c1 [compound 680, (S)-N-(1-Amino-3-hydroxy-1-oxopropan-2-yl)-2-methyl-5-((4-methyloxazol-5-yl)methoxy)benzofuran-3-carboxamide] | > 6.00
32 | Cc1ncsc1COc1ccc2oc(C)c(C(=O)NC3CCOCC3(F)F)c2c1 (single isomer, unassigned) [cpd 723-En 1] | > 6.00
33 | Cc1oc2ccc(OCc3cccnc3OC3CC3)cc2c1C(=O)NC1(CO)CCOCC1 [compound 711, 5-((2-cyclopropoxypyridin-3-yl)methoxy)-N-(4-(hydroxymethyl)tetrahydro-2H-pyran-4-yl)-2-methylbenzofuran-3-carboxamide] | > 6.00
34 | Cc1cnn(C)c1COc1ccc2oc(C)c(C(=O)N[C@@H](CO)C(N)=O)c2c1 [compound 668, (S)-N-(1-Amino-3-hydroxy-1-oxopropan-2-yl)-5-((1,4-dimethyl-1H-pyrazol-5-yl)methoxy)-2-methylbenzofuran-3-carboxamide] | > 6.00
35 | Cc1oc2ccc(OCc3cn(C)nc3C(F)(F)F)cc2c1C(=O)N[C@@H](CO)C(N)=O [compound 692, (S)-N-(1-Amino-3-hydroxy-1-oxopropan-2-yl)-2-methyl-5-((1-methyl-3-(trifluoromethyl)-1H -pyrazol-4-yl)methoxy)benzofuran-3-carboxamide] | > 6.00
36 | Cc1oc2ccc(OCc3c(Cl)cnn3C)cc2c1C(=O)N[C@@H](CO)C(N)=O [compound 670, (S)-N-(1-Amino-3-hydroxy-1-oxopropan-2-yl)-5-((4-chloro-1-methyl-1H-pyrazol-5-yl)methoxy) -2-methylbenzofuran-3-carboxamide] | > 6.00
37 | Cc1ncc(COc2ccc3oc(C)c(C(=O)NC(CS(C)(=O)=O)C(N)=O)c3c2)s1 (single isomer, unassigned) [cpd 726-En 1] | > 6.00
